pIC50: −log10 of the molar value.
How the values were obtained:
[1] = test system: PANC-1 (human pancreatic carcinoma) cells; assay: Impedance-based viability assay (xCELLigence SP), long treatment; assay type: cell-based; details: 72 h, read-out: cytotoxicity expressed in IC50, PANC-1
Text: (Gibco®/Invitrogen Corporation, New York, NY, USA).
Data obtained from each experiment represent mathematical averages.

[2] = test system: EBC-1 lung cancer cell line; assay: High-throughput screening, CellTiter-Glo cell viability assay at 100 nM; assay type: cell-based, human; details: Homo sapiens, EBC-1, HTS, compounds at 100 nM, 72 h, read-out: cytotoxicity expressed in IC50, EBC-1 (results of High throughput screening)
[3] = test system: H2228 lung cancer cell line; assay: as above; assay type: cell-based, human; details: Homo sapiens, NCI-H2228, HTS, compounds at 100 nM, 72 h, read-out: cytotoxicity expressed in IC50, H2228 (results of High throughput screening)
[4] = test system: A549 lung carcinoma cell line; assay: CellTiter-Glo IC50 (Example 19); assay type: cell-based; details: Homo sapiens, 72 h
Method: (§1) Some representative imipridones and ONC212 as reference were further tested on the following human malignant cell lines: PC3 and LNCap (prostate carcinoma); BxPC3, MiaPaCa2 and Panc1 (pancreatic cancer); A549, HCC827, H1993 and H520 (lung carcinoma); MDA-MB-453 and MDA-MB-231 (breast cancer) (see Table 2 and FIGS. 1-11).
(§2) Cell lines were maintained according to the instructions provided by ATCC (https://www.lgcstandards-atcc.org/) in a 5% CO2 humidified incubator maintained at 37° C. temperature. Effects of compounds on cell viability were measured via CellTiter-Glo® luminescent cell viability assay (Promega, Madison, WI, USA) Cells were plated at 1000 cells/well onto a flat-bottomed, white 96 well plate (BRANDplates, cat. no.: 781965). […] After the treatment, medium was removed and CellTiter-Glo® reagent was added. The luminescence signal was recorded using a microplate reader (BioTek Synergy 2 Multi-Mode Reader, BioTek, Winooski, VT, USA).
(§3) Cell viability data (% of untreated control cells) was evaluated with Microsoft Excel. Dose-response curves (using a non-linear regression model, log (inhibitor) vs response, variable slope) were generated and IC50 values were determined using Graph Pad Prism 5.02 software (GraphPad Software, San Diego, CA, USA).

[5] = test system: BxPC3 pancreatic cancer cell line; assay: CellTiter-Glo IC50 (Example 19); assay type: cell-based; details: Homo sapiens, BXPC-3, 72 h
Method: as §1, §2, §3

[6] = test system: H1993 lung carcinoma cell line; assay: CellTiter-Glo IC50 (Example 19); assay type: cell-based; details: Homo sapiens, NCI-H1993, 72 h
Method: as §1, §2, §3

[7] = test system: H520 lung carcinoma cell line; assay: CellTiter-Glo IC50 (Example 19); assay type: cell-based; details: Homo sapiens, NCI-H520, 72 h
Method: as §1, §2, §3

[8] = test system: HCC827 lung carcinoma cell line; assay: CellTiter-Glo IC50 (Example 19); assay type: cell-based; details: Homo sapiens, 72 h
Method: as §1, §2, §3

[9] = test system: LNCap human prostate cancer cell line; assay: CellTiter-Glo IC50 (Example 19); assay type: cell-based; details: 72 h
Method: as §1, §2, §3

[10] = test system: MiaPaCa2 pancreatic cancer cell line; assay: CellTiter-Glo IC50 (Example 19); assay type: cell-based; details: Homo sapiens, MIA PaCa-2, 72 h
Method: as §1, §2, §3

[11] = test system: PC3 human prostate cancer cell line; assay: CellTiter-Glo IC50 (Example 19); assay type: cell-based; details: 72 h
Method: as §1, §2, §3

[12] = test system: Panc1 pancreatic cancer cell line; assay: CellTiter-Glo IC50 (Example 19); assay type: cell-based; details: Homo sapiens, PANC-1, 72 h
Method: as §1, §2, §3

[13] = test system: MDA-MB-231 breast cancer cell line; assay: CellTiter-Glo IC50 (Table 3); assay type: cell-based; details: Homo sapiens
Method: as §1, §2, §3

[14] = test system: MDA-MB-453 breast cancer cell line; assay: CellTiter-Glo IC50 (Table 3); assay type: cell-based; details: Homo sapiens
Method: as §1, §2, §3

Detroit 562 cell line = assay: Additional in vitro IC50 tests (Table 3); assay type: cell-based; details: Homo sapiens
Method: as §2, §3

EBC-1 cell line = assay: Additional in vitro IC50 tests (Table 3); assay type: cell-based; details: Homo sapiens
Method: as §2, §3

Fadu cell line = assay: Additional in vitro IC50 tests (Table 3); assay type: cell-based; details: Homo sapiens
Method: as §2, §3

H2228 cell line = assay: Additional in vitro IC50 tests (Table 3); assay type: cell-based; details: Homo sapiens, NCI-H2228
Method: as §2, §3

SCC-25 cell line = assay: Additional in vitro IC50 tests (Table 3); assay type: cell-based; details: Homo sapiens
Method: as §2, §3

[15] = test system: representative cell lines; assay: Cytotoxicity on representative cell lines (summary statement); assay type: cell-based; details: Homo sapiens; summary range, ca.

pIC50 [4]: 8.40
pIC50 [5]: 8.52
pIC50 [6]: 8.52
pIC50 [7]: 8.52
pIC50 [8]: 8.40
pIC50 [9]: 8.70
pIC50 [10]: 8.40
pIC50 [11]: 8.70
pIC50 [12]: 8.40
pIC50 [13]: > 9.00
pIC50 [14]: > 9.00
pIC50 (Detroit 562 cell line): 8.52
pIC50 (EBC-1 cell line): 8.40
pIC50 (Fadu cell line): 8.30
pIC50 (H2228 cell line): 8.22
pIC50 (SCC-25 cell line): 8.15
melting point: 173.5 °C
Compound: O=C1C2=C(CCN(Cc3cc(F)cc(F)c3)C2)N2CCN=C2N1Cc1ccc(Br)cc1 [I/39, 4-(4-Bromobenzyl)-7-(3,5-difluorobenzyl)-2,4,6,7,8,9-hexahydroimidazo[1,2-a]pyrido[3,4-e]pyrimidin-5(1H)-one]
pIC50 [1]: 8.52
pIC50 [2]: > 7.00
pIC50 [3]: > 7.00
pIC50 [15]: 8.10 to 8.52

From patent publication US20230295162A1 (EÖTVÖS LORÁND TUDOMÁNYEGYETEM, priority 2020, published 2023)
